Experimental data: PMC8586700 (Frontiers in Pharmacology, 2021)
Like-named read-outs stand apart in the source and are kept apart here.

Key:
[1] = Repeated administration, drug concentrations of plasma and brain; type: in vivo, SD rats; conditions: for Mean concentrations±sd, DHC in plasma after multiple doses: loading dose then half doses for four consecutive days
Experimental: (§1) Plasma or brain homogenate of SD rats was taken 50 μL, internal standard solution of 50 μL and protein precipitator of 150 μL were added. After eddy oscillation for 3 min, supernatant was separated by centrifugation.
The concentration of drugs in plasma and brain homogenate after repeated administration was determined according to the same grouping and administration method. The loading dose of 200 mg kg^−1 was given for the first time and half doses for four consecutive days.
(§2) Plasma was collected by centrifugation of blood at 3000 RPM for 10min, and stored at -80 °C. Brain tissue of SD rat was dissected, weighed and added with normal saline at a volume of 2 ml g^−1. After homogenating brain tissue for 3 min by a homogenizer at 14,000 RPM, the supernatant was collected after centrifugation at 12,000 RPM for 10 min.

[2] = Pharmacokinetic experiment, single intragastric administration, plasma by HPLC-UV; type: in vivo, SD rats; conditions: for AUC / Cmax / half-life / Tmax / concentration at 40 min / concentration at 60 min / concentration at 90 min / concentration at 150 min / concentration at 210 min: SD (Sprague-Dawley); for AUC / Cmax / half-life / Tmax / concentration at 40 min / concentration at 60 min / concentration at 90 min / concentration at 150 min / concentration at 210 min / concentration at 20 min / concentration at 270 min / concentration at 330 min: rat, plasma, po; for AUC / Cmax / half-life / Tmax: 200 mg/kg; for AUC: read-out: AUC(0-tn) of DHC (converted); for Cmax: read-out: Cmax of DHC; for half-life: read-out: T1/2 of DHC; for Tmax: read-out: Tmax of DHC (converted); for concentration at 40 min / concentration at 60 min / concentration at 90 min / concentration at 150 min / concentration at 210 min / concentration at 20 min / concentration at 270 min / concentration at 330 min: read-out: Mean concentrations ±sd, DHC; for concentration at 20 min / concentration at 270 min / concentration at 330 min: SD
Experimental: An Agilent 1200 HPLC system was used. […] The flow rate was set at 1 ml min^−1 and detection wavelength was 420, 340 and 323 nm. Injection volume was 5 μL. The column temperature was set at 30°C.
as §1
Blood samples were collected from tail vein at 20 min, 40 min, 1, 1.5, 2.5, 3.5, 4.5, and 5.5 h after intragastric administration.
as §2

[3] = Stability experiment in plasma and brain homogenate samples; type: in vitro ADME, SD rats
Experimental: Three blank samples of plasma and brain homogenate of SD rats were added into the mixed standard solution. The stability experiment included placing at room temperature for 12 h, repeatedly freeze-thaw for three times and frozen for 15 days.

[4] = Group A: CUR 200 mg kg^−1 oral alone
[5] = Group B: CUR 200 mg kg^−1 and PIP 150 mg kg^−1 oral
[6] = Group C: CUR 200 mg kg^−1 and ILE 150 mg kg^−1 oral
[7] = Group A (CUR 200 mg kg^−1 oral alone)
[8] = Group B (CUR 200 mg kg^−1 and PIP 150 mg kg^−1 oral)
[9] = Group C (CUR 200 mg kg^−1 and ILE 150 mg kg^−1 oral)
[10] = combined CUR and ILE compared with CUR alone
[11] = combined CUR and ILE compared with combined administration with PIP
[12] = combined CUR and PIP compared with single CUR administration

Mean concentrations±sd, DHC in plasma after multiple doses ([1]; Group I: CUR): 1400 ± 600 ng/mL
Mean concentrations±sd, DHC in plasma after multiple doses ([1]; Group II: CUR and PIP): 4600 ± 1800 ng/mL
Mean concentrations±sd, DHC in plasma after multiple doses ([1]; Group III: CUR and ILE): 8700 ± 2500 ng/mL
Detection in brain tissue ([1]; after repeated administration): could not be detected
CL of DHC [2, 4]: 233.2 ± 7.8 mL/min
Vd of DHC [2, 4]: 9,087.6 ± 302.9 mL
CL of DHC [2, 5]: 70.0 ± 3.3 mL/min
Vd of DHC [2, 5]: 2,802.6 ± 133.4 mL
CL of DHC [2, 6]: 52.7 ± 2.3 mL/min
Vd of DHC [2, 6]: 3,751.4 ± 165.6 mL
AUC [2, 4]: 7610 ng·h/mL
Cmax [2, 4]: 6100 ± 3200 ng/mL
half-life [2, 4]: 24.8 ± 9.3 min
Tmax [2, 4]: 26 min
AUC [2, 5]: 7060 ng·h/mL
Cmax [2, 5]: 7500 ± 1100 ng/mL
half-life [2, 5]: 25.4 ± 6.3 min
Tmax [2, 5]: 22 min
AUC [2, 6]: 16800 ng·h/mL
Cmax [2, 6]: 9200 ± 2400 ng/mL
half-life [2, 6]: 114 ± 31.2 min
Tmax [2, 6]: 18 min
concentration at 40 min [2, 7]: 3500 ± 900 ng/mL
concentration at 60 min [2, 7]: 1800 ± 500 ng/mL
concentration at 90 min [2, 7]: 1400 ± 500 ng/mL
concentration at 150 min [2, 7]: 1200 ± 700 ng/mL
concentration at 210 min [2, 7]: 1100 ± 300 ng/mL
concentration at 40 min [2, 8]: 4000 ± 600 ng/mL
concentration at 60 min [2, 8]: 2600 ± 500 ng/mL
concentration at 90 min [2, 8]: 2000 ± 400 ng/mL
concentration at 150 min [2, 8]: 1000 ± 300 ng/mL
concentration at 210 min [2, 8]: 600 ± 200 ng/mL
concentration at 40 min [2, 9]: 6300 ± 700 ng/mL
concentration at 60 min [2, 9]: 4800 ± 700 ng/mL
concentration at 90 min [2, 9]: 4000 ± 1200 ng/mL
concentration at 150 min [2, 9]: 3800 ± 700 ng/mL
concentration at 210 min [2, 9]: 2600 ± 100 ng/mL
concentration at 20 min [2, 7]: 6100 ± 3200 ng/mL
concentration at 270 min [2, 7]: 900 ± 400 ng/mL
concentration at 330 min [2, 7]: 800 ± 400 ng/mL
concentration at 20 min [2, 8]: 7500 ± 1100 ng/mL
concentration at 270 min [2, 8]: 250 ± 30 ng/mL
concentration at 330 min [2, 8]: 150 ± 30 ng/mL
concentration at 20 min [2, 9]: 9200 ± 2400 ng/mL
concentration at 270 min [2, 9]: 1400 ± 700 ng/mL
concentration at 330 min [2, 9]: 600 ± 200 ng/mL
AUC(0-tn) of DHC increased by [2, 10]: 1.2 times
CL of DHC reduced by [2, 10]: 77.4%
Cmax of DHC increased by [2, 10]: 50.8%
T1/2 of DHC increased by [2, 10]: 3.6 times
Tmax of DHC decreased by [2, 10]: 30.8%
Vd of DHC reduced by [2, 10]: 58.6%
Vd of DHC increased by ([2]; combined CUR and ILE compared with CUR and PIP combined): 34%
CL of DHC reduced by ([2]; combined CUR and ILE compared with CUR combined with PIP): 24.6%
AUC(0-tn) of DHC increased by [2, 11]: 1.4 times
Cmax of DHC increased by [2, 11]: 22.7%
T1/2 of DHC increased by [2, 11]: 3.5 times
Tmax of DHC decreased by [2, 11]: 18.2%
AUC(0-tn) of DHC decreased by [2, 12]: 7.2%
CL of DHC decreased by [2, 12]: 70%
Cmax of DHC increased by [2, 12]: 23%
Tmax of DHC decreased by [2, 12]: 15.4%
Vd of DHC decreased by [2, 12]: 69.2%
Recoveries after repeated freezing-thawing for three times ([3]; plasma): over 100%
Recoveries after being kept at room temperature for 12 h ([3]; plasma samples): less than 30%
Structure (SMILES): COc1cc(/C=C/C(=O)CC(=O)CCc2ccc(O)c(OC)c2)ccc1O [DHC, Dihydrocurcumin]
